As usually defined, the inhibition is the drop in the measured response relative to a control, in per cent. What is called ED50 is the dose that gives a 50% effect, or the effect in half of the subjects. Lower therefore signals greater potency.

Consider 17 compounds from patent US8435978B2, “Substituted sulfonamide compounds” (Gruenenthal GmbH, priority 2006, dated 2013).

Where a name gives a salt, the structure may show the parent alone.

In assay [1] the target is T1, human B1R receptor (Homo sapiens, UniProt P46663).
T1 construct: host or cells: CHO K1 cells (Chinese hamster ovary), stably transfected
T1 sequence (P46663 1-353): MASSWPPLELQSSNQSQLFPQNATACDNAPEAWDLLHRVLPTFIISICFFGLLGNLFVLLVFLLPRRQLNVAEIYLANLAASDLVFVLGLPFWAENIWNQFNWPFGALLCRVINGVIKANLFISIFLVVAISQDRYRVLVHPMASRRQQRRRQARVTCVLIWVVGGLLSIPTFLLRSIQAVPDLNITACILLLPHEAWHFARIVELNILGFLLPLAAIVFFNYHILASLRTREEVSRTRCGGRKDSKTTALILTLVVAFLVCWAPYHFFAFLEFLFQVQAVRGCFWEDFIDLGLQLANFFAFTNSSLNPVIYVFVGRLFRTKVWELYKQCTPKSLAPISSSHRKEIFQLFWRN
The assay can be described thus: Functional study on the bradykinin receptor 1 (B1R), FLIPR Ca2+ assay, hB1R cells. Format: cell-based. The following applies: CHO-K1, test substance 10 μM, agonist Lys-Des-Arg9-bradykinin 0.5 nM, % inhibition compared with the maximum achievable inhibition, read-out: B1R Antagonism, human [10 μM] % Inhibition. The procedure, abridged:
(§1)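 CHO K1 cells stably expressing human or rat B1R, Fluo-4-loaded; test compound 10 μM added first (activation % vs agonist), then after 10 min 0.5 nM Lys-Des-Arg9-bradykinin (human) or 100 nM Des-Arg9-bradykinin (rat). Ca2+ peak fluorescence by FLIPR; % inhibition relative to maximum achievable inhibition.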

For assay [2], the target named is T2, B1R receptor of the rat (Rattus norvegicus, UniProt P97583).
T2 construct: host or cells: CHO K1 cells (Chinese hamster ovary), stably transfected
T2 sequence (P97583 1-337): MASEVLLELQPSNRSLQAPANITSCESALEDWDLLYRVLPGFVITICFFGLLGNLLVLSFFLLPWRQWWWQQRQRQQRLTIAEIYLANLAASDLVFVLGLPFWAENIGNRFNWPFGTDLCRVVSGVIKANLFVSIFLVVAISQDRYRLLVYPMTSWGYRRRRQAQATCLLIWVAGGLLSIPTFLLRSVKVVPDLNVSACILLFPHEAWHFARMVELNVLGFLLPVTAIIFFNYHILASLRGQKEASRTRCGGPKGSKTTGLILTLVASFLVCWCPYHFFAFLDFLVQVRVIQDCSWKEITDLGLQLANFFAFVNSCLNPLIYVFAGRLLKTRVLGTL
The assay can be described thus: Functional study on the bradykinin receptor 1 (B1R), FLIPR Ca2+ assay, rB1R cells. The following applies: CHO-K1, test substance 10 μM, agonist Des-Arg9-bradykinin 100 nM, % inhibition compared with the maximum achievable inhibition, read-out: B1R Antagonism, rat [10 μM] % Inhibition. It counts as cell-based. The procedure, abridged:
as §1

Assay [3] deals with formalin-induced pain behavior. The assay can be described thus: Formalin test in the mouse (phase 2, chronic pain component). Format: in vivo. The following applies: iv, 5 min. before formalin injection, observation 21 to 24 minutes after formalin. The method, then:
The formalin test (Dubuisson, D. and Dennis, S. G., 1977, Pain, 4, 161-174) represents a model for both acute and chronic pain. By means of a single formalin injection into the dorsal side of a rear paw, a biphasic nociceptive reaction is induced in freely mobile test animals; the reaction is detected by observing three behaviour patterns which are clearly distinguishable from one another. The reaction is two-phase: phase 1=immediate reaction (duration up to 10 min., shaking of the paw, licking), phase 2=late reaction (after a rest phase; likewise shaking of the paw, licking; duration up to 60 min.). The 1st phase reflects a direct stimulation of the peripheral nocisensors with high spinal nociceptive input (acute pain phase); the 2nd phase reflects a spinal and peripheral hypersensitization (chronic pain phase). In the studies described here, the chronic pain component (phase 2) has been evaluated. Formalin in a volume of 20 μl and a concentration of 1% is administered subcutaneously into the dorsal side of the right rear paw of each animal. The specific changes in behavior, such as lifting, shaking or licking of the paw (score 3, Dubuisson & Dennis, 1977), are observed and recorded in the observation period of 21 to 24 minutes following the formalin injection. The behaviour of the animals after administration of the substance (n=10 per dose of substance) was compared with a control group which received vehicle (n=10). Based on the quantification of the pain behavior, the action of the substance in the formalin test was determined as the change in percent compared with the control. The ED50 calculations (ED50=mean effective dose) were carried out by regression analysis according to the method of Litchfield and Wilcoxon (Litchfield, J. T., Wilcoxon, J. J., 1949, J. Pharmacol. Exp. Ther. 96, 99-113). The time of administration before the formalin injection was chosen in dependence on the mode of administration of the compounds according to the invention (intravenous: 5 min.).

Regarding `COc1cc(C)c(S(=O)(=O)N2CCCCC2COCC(=O)N2CCN(C3CCN(C)CC3)CC2)c(C)c1.Cl.Cl` (stereo not shown) [Example 97, 2-((1-(4-methoxy-2,6-dimethylphenylsulfonyl)piperidin-2-yl)methoxy)-1-(4-(1-methylpiperidin-4-yl)piperazin-1-yl)ethanone dihydrochloride], the inhibition at 10 µM is 98% in assay [1] and 98.2% in assay [2]. The median effective dose (ED50) in assay [3] worked out at 13.3 mg/kg.

As for `COc1cc(C)c(S(=O)(=O)N2CCCCC2COCC(=O)N(C)Cc2ccc(C3=NCCN3)cc2)c(C)c1.Cl` (stereo not shown) [Example 193, N-(4-(4,5-dihydro-1H-imidazol-2-yl)benzyl)-2-((1-(4-methoxy-2,6-dimethylphenylsulfonyl)piperidin-2-yl)methoxy)-N-methylacetamide hydrochloride], the figures for the inhibition at 10 µM in assay [1] and in assay [2] were 104% and 98.3%, respectively. Moreover, the 50% effective dose (ED50) in assay [3] came out at 2.59 mg/kg.

Take `COc1cc(C)c(S(=O)(=O)N2CCCCC2COCC(=O)N2CCC(N3CCN4CCCCC4C3)CC2)c(C)c1` (stereo not shown) [Example 98, 1-(4-(dihydro-1H-pyrido[1,2-a]pyrazin-2(6H,7H,8H,9H,9aH)-yl)piperidin-1-yl)-2-((1-(4-methoxy-2,6-dimethylphenylsulfonyl)piperidin-2-yl)methoxy)ethanone]: the inhibition at 10 µM in assay [1] was found to be 104%; in assay [2] it was 101%. It took a dose of 13.6 mg/kg to reach the 50% effect level in assay [3] (ED50).

For `Cc1cc(C)c(S(=O)(=O)N2CCCCC2COCC(=O)NCC2CCCN(Cc3ccccc3)C2)c(C)c1` (stereo not shown) [Example 12, N-(1-benzyl-piperidin-3-ylmethyl)-2-[1-(2,4,6-trimethyl-phenylsulfonyl)-piperidin-2-ylmethoxy]-acetamide], the inhibition at 10 µM in assay [1] was 99.1%; in assay [2], 74.9%.

Regarding `COc1cc(C)c(S(=O)(=O)N2CCCCC2COCC(=O)N2CCN(C(C)C)CC2)c(C)c1` (stereo not shown) [Example 291, 1-(4-isopropylpiperazin-1-yl)-2-((1-(4-methoxy-2,6-dimethylphenylsulfonyl)piperidin-2-yl)methoxy)ethanone], the results for the inhibition at 10 µM in assay [1] and in assay [2] were 104% and 93%, respectively.

As to `CN1CCC(N2CCN(C(=O)COCC3CCCN3S(=O)(=O)c3ccc(Cl)c(Cl)c3)CC2)CC1` (stereo not shown) [Example 62, 2-[1-(3,4-dichloro-phenylsulfonyl)-pyrrolidin-2-ylmethoxy]-1-[4-(1-methyl-piperidin-4-yl)-piperazin-1-yl]-ethanone], the figures for the inhibition at 10 µM in assay [1] and in assay [2] were 59.6% and 34%, respectively.

Take `COc1cc(C)c(S(=O)(=O)N2CCCC2COCC(=O)N2CCCC2c2ccccn2)c(C)c1` (stereo not shown) [Example 271, 2-((1-(4-methoxy-2,6-dimethylphenylsulfonyl)pyrrolidin-2-yl)methoxy)-1-(2-(pyridin-2-yl)pyrrolidin-1-yl)ethanone]: the figures for the inhibition at 10 µM in assay [1] and in assay [2] were 59.1% and 85.9%, respectively.

On to `COc1cc(C)c(S(=O)(=O)N2CCCCC2COCC(=O)NCc2ccc(Oc3cnccn3)cc2)c(C)c1` (stereo not shown) [Example 196, 2-((1-(4-methoxy-2,6-dimethylphenylsulfonyl)piperidin-2-yl)methoxy)-N-(4-(pyrazin-2-yloxy)benzyl)acetamide], for which the inhibition at 10 µM in assay [1] amounted to 100%; in assay [2], 98.8%.

For `Cc1ccc(CN2CCN(C(=O)COCC3CCCN3S(=O)(=O)c3c(Cl)cccc3Cl)CC2)cc1` (stereo not shown) [Example 360, 2-((1-(2,6-dichlorophenylsulfonyl)pyrrolidin-2-yl)methoxy)-1-(4-(4-methylbenzyl)piperazin-1-yl)ethanone], the inhibition at 10 µM in assay [1] amounted to 96.7%; in assay [2] it was 103%.

For the compound `CCN(Cc1ccncc1)C(=O)COCC1CCCCN1S(=O)(=O)c1c(Cl)cccc1Cl` (stereo not shown) [Example 482, 2-((1-(2,6-dichlorophenylsulfonyl)piperidin-2-yl)methoxy)-N-ethyl-N-(pyridin-4-ylmethyl)acetamide], the values for the inhibition at 10 µM in assay [1] and in assay [2] were 97.9% and 102%, respectively.

As to `CN1CCC(N2CCN(C(=O)COCC3CCCCN3S(=O)(=O)c3ccccc3Cl)CC2)CC1` (stereo not shown) [Example 139, 2-((1-(2-chlorophenylsulfonyl)piperidin-2-yl)methoxy)-1-(4-(1-methylpiperidin-4-yl)piperazin-1-yl)ethanone dihydrochloride], the figures for the inhibition at 10 µM in assay [1] and in assay [2] were 99.9% and 98.8%, respectively.

As to `COc1cc(C)c(S(=O)(=O)N2CCCCC2COCC(=O)NCCCCCN(C)C)c(C)c1` (stereo not shown) [Example 250, N-(5-(dimethylamino)pentyl)-2-((1-(4-methoxy-2,6-dimethylphenylsulfonyl)piperidin-2-yl)methoxy)acetamide], the results for the inhibition at 10 µM in assay [1] and in assay [2] were 96.8% and 90.5%, respectively.

Regarding `CN(C)CCCN1CCN(C(=O)COCC2CCCCN2S(=O)(=O)c2c(Cl)cccc2Cl)CC1` (stereo not shown) [Example 564, 2-((1-(2,6-dichlorophenylsulfonyl)piperidin-2-yl)methoxy)-1-(4-(3-(dimethylamino)propyl)piperazin-1-yl)ethanone], the figures for the inhibition at 10 µM in assay [1] and in assay [2] were 105% and 102%, respectively.

In the case of `COc1cc(C)c(S(=O)(=O)N2CCCC2COCC(=O)N2CCN(c3ccc(Cl)c(Cl)c3)CC2)c(C)c1` (stereo not shown) [Example 348, 1-(4-(3,4-dichlorophenyl)piperazin-1-yl)-2-((1-(4-methoxy-2,6-dimethylphenylsulfonyl)pyrrolidin-2-yl)methoxy)ethanone], the inhibition at 10 µM in assay [1] was found to be 87.1%; in assay [2], 103%.

As for `COc1cc(C)c(S(=O)(=O)N2CCCCC2COCC(=O)Nc2cc(C)[nH]n2)c(C)c1` (stereo not shown) [Example 535, 2-((1-(4-methoxy-2,6-dimethylphenylsulfonyl)piperidin-2-yl)methoxy)-N-(5-methyl-1H-pyrazol-3-yl)acetamide], the inhibition at 10 µM was 48.4% in assay [1] and 107% in assay [2].

In the case of `COc1cc(C)c(S(=O)(=O)N2CCCC2COCC(=O)NCC2CCCN(Cc3ccccc3)C2)c(C)c1` (stereo not shown) [Example 300, N-((1-benzylpiperidin-3-yl)methyl)-2-((1-(4-methoxy-2,6-dimethylphenylsulfonyl)pyrrolidin-2-yl)methoxy)acetamide], the inhibition at 10 µM turned out to be 106% in assay [1] and 103% in assay [2].

Regarding `Cc1ccc(CN2CCN(C(=O)COCC3CCCCN3S(=O)(=O)c3c(Cl)cccc3Cl)CC2)cc1` (stereo not shown) [Example 408, 2-((1-(2,6-dichlorophenylsulfonyl)piperidin-2-yl)methoxy)-1-(4-(4-methylbenzyl)piperazin-1-yl)ethanone], the inhibition at 10 µM is 102% in assay [1] and 99.8% in assay [2].
